Drawing on US7015237B2, “Pyridine matrix metalloproteinase inhibitors” (Warner-Lambert Company, priority 2001, dated 2006), this text covers melting point and IC50 for six molecules.

The target in series [1] is MMP-13 (catalytic domain of collagenase 3) (Homo sapiens, UniProt P45452). In words: Thiopeptolide substrate hydrolysis assay, MMP-13. It counts as biochemical. Conditions: catalytic domain of collagenase 3; Table 1; read-out: MMP-13 IC50. The source says: The assays used to evaluate the biological activity of the invention compounds are well known and routinely used by those skilled in the study of MMP inhibitors and their use to treat clinical conditions.
(§1) The assays measure the amount by which a test compound reduces the hydrolysis of a thiopeptolide substrate catalyzed by a matrix metalloproteinase enzyme. Such assays are described in detail by Ye et al., in Biochemistry, 1992; 31(45):11231–11235, which is incorporated herein by reference.
Thiopeptolide substrates show virtually no decomposition or hydrolysis at or below neutral pH in the absence of a matrix metalloproteinase enzyme. A typical thiopeptolide substrate commonly utilized for assays is Ac-Pro-Leu-Gly-thioester-Leu-Leu-Gly-OEt. A 100-μL assay mixture will contain 50 mM of N-2-hydroxyethylpiperazine-N′-2-ethanesulfonic acid buffer (“HEPES”) at pH 7.0, 10 mM CaCl2, 100 μM thiopeptolide substrate, and 1 mM 5,5′-dithio-bis-(2-nitro-benzoic acid) (DTNB). The thiopeptolide substrate concentration may be varied from, for example, 10 to 800 μM to obtain Km and Kcat values. The change in absorbance at 405 nm is monitored on a Thermo Max microplate reader (Molecular Devices, Menlo Park, Calif.) at room temperature (22° C.). The calculation of the amount of hydrolysis of the thiopeptolide substrate is based on E412=13600 M^−1 cm^−1 for the DTNB-derived product 3-carboxy-4-nitrothiophenoxide. Assays are carried out with and without matrix metalloproteinase inhibitor compounds, and the amount of hydrolysis is compared for a determination of inhibitory activity of the test compounds.
In the tables, MMP-1 refers to full-length interstitial collagenase; MMP-3 refers to the catalytic domain of stromelysin-1; MMP-13 refers to the catalytic domain of collagenase 3. Test compounds were evaluated at various concentrations to determine their respective IC50 values.

In series [2] the target is T1, MMP-1 (full-length interstitial collagenase) (Homo sapiens, UniProt P03956).
T1 sequence (P03956 100-469): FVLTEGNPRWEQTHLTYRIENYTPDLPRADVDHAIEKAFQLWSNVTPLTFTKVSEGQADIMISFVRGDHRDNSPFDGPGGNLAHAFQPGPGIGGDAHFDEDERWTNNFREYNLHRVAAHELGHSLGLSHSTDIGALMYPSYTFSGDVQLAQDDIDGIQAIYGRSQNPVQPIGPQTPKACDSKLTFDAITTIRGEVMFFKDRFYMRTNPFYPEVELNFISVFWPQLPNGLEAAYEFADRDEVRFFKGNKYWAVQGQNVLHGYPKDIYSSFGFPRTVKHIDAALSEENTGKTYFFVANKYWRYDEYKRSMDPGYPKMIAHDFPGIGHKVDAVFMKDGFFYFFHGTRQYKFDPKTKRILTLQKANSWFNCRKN
In words: Thiopeptolide substrate hydrolysis assay, MMP-1. It counts as biochemical. The note with it: pH 7.0, 22° C.
Description: The invention compounds of Formula I have been evaluated in standard assays for their ability to inhibit the catalytic activity of various MMP enzymes. The assays used to evaluate the biological activity of the invention compounds are well known and routinely used by those skilled in the study of MMP inhibitors and their use to treat clinical conditions.
as §1
Thiopeptolide substrates show virtually no decomposition or hydrolysis at or below neutral pH in the absence of a matrix metalloproteinase enzyme. A typical thiopeptolide substrate commonly utilized for assays is Ac-Pro-Leu-Gly-thioester-Leu-Leu-Gly-OEt. […] The change in absorbance at 405 nm is monitored on a Thermo Max microplate reader (Molecular Devices, Menlo Park, Calif.) at room temperature (22° C.). […]
Representative compounds have been evaluated for their ability to inhibit various matrix metalloproteinase enzymes. […] Test compounds were evaluated at various concentrations to determine their respective IC50 values.

The molecule `O=C(NCc1ccc(Cl)cc1)c1cncc(C(=O)NCc2ccc(Cl)cc2)c1` [Example 2, Pyridine-3,5-dicarboxylic acid bis-(4-chloro-benzylamide)] gave a melting point of 224 to 225 °C.

In turn, `O=C(NCc1cccc(Cl)c1)c1cncc(C(=O)NCc2cccc(Cl)c2)c1` [Example 3, Pyridine-3,5-dicarboxylic acid bis-(3-chloro-benzylamide)] had a melting point of 185 to 186 °C. Also, in series [1], the IC50 stood at 30 µM.

With `O=C(OCc1ccc2c(c1)OCO2)c1cncc(C(=O)OCc2ccc3c(c2)OCO3)c1` [Example 5, Pyridine-3,5-dicarboxylic acid bis-(1,3-benzodioxol-5-ylmethyl) ester], the melting point lay within 113 to 114 °C.

In the case of `COc1ccc(CNC(=O)c2cncc(C(=O)NCc3ccc(OC)cc3)c2)cc1` [Example 6, Pyridine-3,5-dicarboxylic acid bis-(4-methoxy-benzylamide)], the melting point lay in the range of 224 to 225 °C. Further, the IC50 in series [1] was 8.7 µM.

In the case of `O=C(NCc1ccc2c(c1)OCO2)c1cncc(C(=O)NCc2ccc3c(c2)OCO3)c1` [Example 7, Pyridine-3,5-dicarboxylic acid bis-[(1,3-benzodioxol-5-ylmethyl)-amide]], the melting point lay in the range of 194 to 195 °C. The IC50 in series [2] was 30 µM. Moreover, in series [1], the IC50 came to 2.3 µM.

Molecule `O=C(NCc1ccc(F)cc1)c1cncc(C(=O)NCc2ccc(F)cc2)c1` [Example 9, Pyridine-3,5-dicarboxylic acid bis-(4-fluoro-benzylamide)] registered a melting point of 216 to 218 °C.

The term melting point denotes the temperature of the solid-liquid transition. The term IC50 denotes the midpoint of a concentration-inhibition curve.
